From patent publication US7700576B2, “Pharmaceutical composition on basis of reverse transcriptase inhibitor and meldonium” (priority 2005, dated 2010)

Key:
myocardium = tested on: myocardium; parameters: species or system mice; settings: mouse, in vivo, ip
Method: The cardiotoxic action of Zidovudine and Meldonium pharmaceutical compositions was investigated by introducing them into male mice of initial mass 15.69±1.56 g during a fortnight. Throughout the experiment, the animals were kept in standard laboratory conditions at temperature of 22±0.5° C. and 12 hours light/darkness cycle, being fed with standard laboratory animal food. For the control group (n=6), 10 ml of 0.9% NaCl aqueous solution was intraperitoneally introduced daily (1st and 12th group). In a series of experiments, the following solutions were administered intraperitoneally for animal trial groups (including 6 mice each) daily. On the 15th day of the trial, the animals were decapitated, hearts were taken out and placed into 10% formalin solution. For immuno-histochemical research, organs were fixed in paraffin, and preparations of 4 μm thickness were sliced which were tinged according to the avidin-biotin immuno-histochemical method by use of DAKO LSAB reagent kit.

cerebral cortex neurons = experiment: Cerebral cortex neuron degenerative transformation (molecular and external granule layers); type: in vivo, mice; settings: after a fortnight
Method: (§1) For this purpose in an experiment of analogous pattern, the experimental animals' neurological reactions were assessed after a fortnight. For this assessment, the common test of pain latent period in the tail compression model as well as the appraisal of cerebral cortex neuron degenerative transformation was made (molecular and external granule layers).

[1] = mouse, in vivo
Method: as §1

mice = settings: p.o. for mice; cited from earlier work
[2] = oral introduction; cited from earlier work

| Increase in degenerated neurons of the cerebral cortex as compared with the control (cerebral cortex neurons) | Algesia (pain latent period, tail compression) [1] | SMILES | Histological changes of heart tissue (myocardium) | toxicity (mice) | bioavailability [2] |
| --- | --- | --- | --- | --- | --- |
| 3 fold | provokes significant algesia | Cc1cn([C@H]2C[C@H](N=[N+]=[N-])[C@@H](CO)O2)c(=O)[nH]c1=O [AZT, 3′-Azido-3′-deoxythymidine] | induces perivascular oedema, degeneration of myocardium adipose tissue and infiltration with leucocytes |  |  |
| 3 fold | provokes significant algesia | Nc1ccn([C@@H]2CS[C@H](CO)O2)c(=O)n1 [Lamivudine, (2R-cis)-4-Amino-1-[2-(hydroxymethyl)-1,3-oxathiolan-5-yl]-2(IH)-pyrimidinone] |  |  |  |
|  |  | C[N+](C)(C)NCCC(=O)[O-] [Meldonium, 3-(2,2,2-Trimethylhydrazinium) propionate] |  | more than 25,000 mg/kg | very high |
| 3 fold | provokes significant algesia | Cc1cn([C@H]2C=C[C@@H](CO)O2)c(=O)[nH]c1=O [Stavudine, 2′,3′-Didehydro-3′-deoxythymidine] | induces perivascular oedema, degeneration of myocardium adipose tissue and infiltration with leucocytes |  |  |
